ChEMBL document CHEMBL1201862, “PubChem BioAssay data set” (2004)
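These data come from cells grown in 96-well plates and exposed to compound for 48 hours at five concentrations. GI50 marks 50% less growth.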 Activity calls are given as the source filed them. Rule as the data show it: active = GI50 up to about 1.1 µM and inactive = higher.

Experiments:
Test in all cases: NCI anticancer screen, dose series, 48 h
[1] = test system: BT-549
[2] = test system: SF-539
[3] = test system: HOP-62
[4] = test system: MOLT-4
[5] = test system: HOP-92
[6] = test system: OVCAR-5
[7] = test system: M14
[8] = test system: NCI/ADR-RES
[9] = test system: OVCAR-8
[10] = test system: RPMI-8226
[11] = test system: HCT-116
[12] = test system: SNB-19
[13] = test system: SN12C
[14] = test system: TK-10
[15] = test system: SK-MEL-5
[16] = test system: 786-0
[17] = test system: SK-MEL-2
[18] = test system: SF-295
[19] = test system: PC-3
[20] = test system: A498
[21] = test system: MCF7
[22] = test system: RXF 393
[23] = test system: HT-29
[24] = test system: DU-145
[25] = test system: MDA-N
[26] = test system: NCI-H522
[27] = test system: SK-OV-3
[28] = test system: NCI-H23
[29] = test system: UO-31
[30] = test system: A549
[31] = test system: MDA-MB-231
[32] = test system: COLO 205
[33] = test system: HCT-15
[34] = test system: OVCAR-4
[35] = test system: CAKI-1
[36] = test system: EKVX
[37] = test system: U-251
[38] = test system: SW-620
[39] = test system: KM12
[40] = test system: CCRF-CEM
[41] = test system: K562
[42] = test system: HL-60
[43] = test system: Malme-3M
[44] = test system: LOX IMVI
[45] = test system: UACC-257
[46] = test system: IGROV-1
[47] = test system: T47D
[48] = test system: NCI-H460
[49] = test system: OVCAR-3
[50] = test system: ACHN
[51] = test system: UACC-62
[52] = test system: SK-MEL-28
[53] = test system: MDA-MB-435
[54] = test system: Hs-578T
[55] = test system: NCI-H226
[56] = test system: SF-268
[57] = test system: SNB-75
[58] = test system: SR
[59] = test system: HCC 2998

## CC1(C)N=C(N)N=C(N)N1c1cccc(C(=O)Nc2ccc(S(=O)(=O)F)cc2)c1
[1]
  GI50: > 100 µM (inactive)
[2]
  GI50: > 100 µM (inactive)
[3]
  GI50: > 100 µM (inactive)
[4]
  GI50: > 100 µM (inactive)
[5]
  GI50: > 100 µM (inactive)
[6]
  GI50: > 100 µM (inactive)
[7]
  GI50: > 100 µM (inactive)
[8]
  GI50: > 100 µM (inactive)
[9]
  GI50: > 100 µM (inactive)
[10]
  GI50: > 100 µM (inactive)
[11]
  GI50: > 100 µM (inactive)
[12]
  GI50: > 100 µM (inactive)
[13]
  GI50: > 100 µM (inactive)
[14]
  GI50: > 100 µM (inactive)
[15]
  GI50: > 100 µM (inactive)
[16]
  GI50: > 100 µM (inactive)
[17]
  GI50: > 100 µM (inactive)
[18]
  GI50: > 100 µM (inactive)
[19]
  GI50: > 100 µM (inactive)
[20]
  GI50: > 100 µM (inactive)
[21]
  GI50: > 100 µM (inactive)
[22]
  GI50: > 100 µM (inactive)
[23]
  GI50: > 100 µM (inactive)
[24]
  GI50: > 100 µM (inactive)
[25]
  GI50: > 100 µM (inactive)
[26]
  GI50: > 100 µM (inactive)
[27]
  GI50: > 100 µM (inactive)
[28]
  GI50: > 100 µM (inactive)
[29]
  GI50: > 100 µM (inactive)
[30]
  GI50: > 100 µM (inactive)
[31]
  GI50: > 100 µM (inactive)
[32]
  GI50: > 100 µM (inactive)
[33]
  GI50: > 100 µM
[34]
  GI50: > 100 µM (inactive)
[35]
  GI50: > 100 µM (inactive)
[36]
  GI50: > 100 µM (inactive)
[37]
  GI50: > 100 µM (inactive)
[38]
  GI50: > 100 µM (inactive)
[39]
  GI50: > 100 µM (inactive)
[40]
  GI50: > 100 µM (inactive)
[41]
  GI50: > 100 µM (inactive)
[42]
  GI50: > 100 µM (inactive)
[43]
  GI50: > 100 µM (inactive)
[44]
  GI50: > 100 µM (inactive)
[45]
  GI50: > 100 µM (inactive)
[46]
  GI50: > 100 µM (inactive)
[47]
  GI50: > 100 µM (inactive)
[48]
  GI50: > 100 µM (inactive)
[49]
  GI50: > 100 µM (inactive)
[50]
  GI50: > 100 µM (inactive)
[51]
  GI50: > 100 µM (inactive)
[52]
  GI50: > 100 µM (inactive)
[53]
  GI50: > 100 µM (inactive)
[54]
  GI50: > 100 µM (inactive)
[55]
  GI50: > 100 µM (inactive)
[56]
  GI50: > 100 µM (inactive)
[57]
  GI50: > 100 µM (inactive)

## O=C1COc2cccnc2N1CCCCO
[1]
  GI50: > 100 µM (inactive)
[2]
  GI50: > 100 µM (inactive)
[3]
  GI50: > 100 µM (inactive)
[4]
  GI50: > 100 µM (inactive)
[5]
  GI50: > 100 µM (inactive)
[6]
  GI50: > 100 µM (inactive)
[10]
  GI50: > 100 µM (inactive)
[11]
  GI50: > 100 µM (inactive)
[12]
  GI50: > 100 µM (inactive)
[13]
  GI50: > 100 µM (inactive)
[14]
  GI50: > 100 µM (inactive)
[15]
  GI50: > 100 µM (inactive)
[16]
  GI50: > 100 µM (inactive)
[17]
  GI50: > 100 µM (inactive)
[18]
  GI50: > 100 µM (inactive)
[19]
  GI50: > 100 µM (inactive)
[20]
  GI50: > 100 µM (inactive)
[21]
  GI50: > 100 µM (inactive)
[22]
  GI50: > 100 µM (inactive)
[24]
  GI50: > 100 µM (inactive)
[25]
  GI50: > 100 µM (inactive)
[26]
  GI50: > 100 µM (inactive)
[27]
  GI50: > 100 µM (inactive)
[29]
  GI50: > 100 µM (inactive)
[30]
  GI50: > 100 µM (inactive)
[31]
  GI50: > 100 µM (inactive)
[33]
  GI50: > 100 µM
[35]
  GI50: > 100 µM (inactive)
[36]
  GI50: > 100 µM (inactive)
[37]
  GI50: > 100 µM (inactive)
[38]
  GI50: > 100 µM (inactive)
[39]
  GI50: > 100 µM (inactive)
[40]
  GI50: > 100 µM (inactive)
[42]
  GI50: > 100 µM (inactive)
[44]
  GI50: > 100 µM (inactive)
[45]
  GI50: > 100 µM (inactive)
[46]
  GI50: > 100 µM (inactive)
[47]
  GI50: 38.1 µM (inactive)
[48]
  GI50: > 100 µM (inactive)
[49]
  GI50: > 100 µM (inactive)
[50]
  GI50: > 100 µM (inactive)
[51]
  GI50: > 100 µM (inactive)
[52]
  GI50: > 100 µM (inactive)
[53]
  GI50: > 100 µM (inactive)
[58]
  GI50: > 100 µM (inactive)
[54]
  GI50: > 100 µM (inactive)
[57]
  GI50: > 100 µM (inactive)

## O=C(OCc1ccccc1[N+](=O)[O-])N1c2ccccc2[C@@]23O[C@]24CCC[C@H]3C#C/C=C\C#C[C@H]14
[1]
  GI50: 49.5 µM (inactive)
[2]
  GI50: 9.95 µM (inactive)
[4]
  GI50: 1.46 µM (inactive)
[5]
  GI50: 25.6 µM (inactive)
[6]
  GI50: 66.7 µM (inactive)
[7]
  GI50: > 100 µM (inactive)
[8]
  GI50: 31.3 µM (inactive)
[9]
  GI50: 49 µM (inactive)
[59]
  GI50: 41.3 µM (inactive)
[11]
  GI50: 41.5 µM (inactive)
[12]
  GI50: > 100 µM (inactive)
[13]
  GI50: 13.7 µM (inactive)
[14]
  GI50: > 100 µM (inactive)
[15]
  GI50: 12.4 µM (inactive)
[16]
  GI50: 15.7 µM (inactive)
[17]
  GI50: > 100 µM (inactive)
[18]
  GI50: 7.01 µM (inactive)
[19]
  GI50: 14.8 µM (inactive)
[20]
  GI50: > 100 µM (inactive)
[21]
  GI50: 0.875 µM (active)
[22]
  GI50: > 100 µM (inactive)
[23]
  GI50: 38.1 µM (inactive)
[24]
  GI50: > 100 µM (inactive)
[25]
  GI50: > 100 µM (inactive)
[26]
  GI50: 78 µM (inactive)
[27]
  GI50: > 100 µM (inactive)
[28]
  GI50: 18.7 µM (inactive)
[29]
  GI50: 21 µM (inactive)
[30]
  GI50: 4.02 µM (inactive)
[31]
  GI50: > 100 µM (inactive)
[32]
  GI50: 67.3 µM (inactive)
[33]
  GI50: 17 µM
[34]
  GI50: > 100 µM (inactive)
[35]
  GI50: 7.36 µM (inactive)
[36]
  GI50: > 100 µM (inactive)
[37]
  GI50: 11 µM (inactive)
[38]
  GI50: 9.16 µM (inactive)
[39]
  GI50: > 100 µM (inactive)
[40]
  GI50: 4.21 µM (inactive)
[41]
  GI50: 5.83 µM (inactive)
[42]
  GI50: 2.5 µM (inactive)
[43]
  GI50: 8.38 µM (inactive)
[44]
  GI50: 6.73 µM (inactive)
[45]
  GI50: > 100 µM (inactive)
[46]
  GI50: > 100 µM (inactive)
[47]
  GI50: 73.8 µM (inactive)
[48]
  GI50: 0.362 µM (active)
[49]
  GI50: > 100 µM (inactive)
[50]
  GI50: 12.8 µM (inactive)
[51]
  GI50: 22.7 µM (inactive)
[52]
  GI50: 44.1 µM (inactive)
[53]
  GI50: > 100 µM (inactive)
[54]
  GI50: 66.5 µM (inactive)
[55]
  GI50: > 100 µM (inactive)
[56]
  GI50: 75 µM (inactive)
